Assay results taken from paper PMC8567104 (Frontiers in Pharmacology, 2021).
Several values for one entry are separate records, joined by “and”; a condition that tells them apart may be missing. Identical values can stand only once. Like-named read-outs stand apart in the source and are kept apart here.

Legend:
[1] = biological target: T1, hNav1.5 (Homo sapiens, UniProt Q14524)
Description: (§1) Electrophysiological experiments were performed as previously described ([Ludolph et al., 2010]; [Föhr et al., 2021]). Briefly, tsA201 cells were used for experiments 24–48 h after transfection. Membrane currents were recorded in the whole-cell recording mode using an EPC-9 amplifier and Patchmaster software (v2x73; HEKA, Lambrecht, Germany ([Hamill et al., 1981])). Before recording, cells were rinsed twice with an extracellular standard solution containing (in mM): 140 NaCl, 5 KCl, 1.5 CaCl2, 1.0 MgCl2, 10 glucose and 12 HEPES (4-(2-hydroxyethyl)piperazine- 1-ethanesulfonic acid; pH 7.3). For establishing activation curves, the concentration of NaCl was reduced to 30 mM to achieve current amplitudes in the range of 1 nA. Lacking cations were replaced equimolar by N-Methyl-D-glucamine (NMDG). Patch pipettes were drawn from borosilicate glass with tip resistances of about 2 MΩ when filled with (in mM): 125 CsF, 10 NaCl, 10 EGTA (ethylene glycol-bis(2-aminoethylether)-N,N,N′,N′-tetraacetic acid), 10 HEPES; pH 7.2. To improve sealing, tips were briefly dipped into 2% dimethylsilane dissolved in dichloromethane.
(§2) Unless otherwise stated, the membrane potential was held at −140 mV from which channel activations were elicited by brief depolarizing pulses to −20 mV of 5 ms duration. In order to minimize voltage errors, the series resistance was compensated up to 80%. Cells with currents larger than 6 nA were excluded from evaluation. Specific protocols are illustrated in figure legends where appropriate.

[2] = biological target: T1, hNav1.5; test: Voltage-dependence of fast inactivation; assay type: cell-based; set-up: expressed in transfected cells; host or cells: tsA201 (HEK293 derivative)
Description: as §1, with “dichloromethane. […]” for “dichloromethane.”
FIGURE 5 Voltage-dependence of fast inactivation. […] Voltage-dependence of fast inactivation was determined by measuring sodium currents elicited by 5 ms depolarizations to −20 mV after conditioning pre-pulses for 500 ms to different potentials (range −140 to −45 mV).

[3] = biological target: T1, hNav1.5; test: cell-based
Description: as §1, §2

[4] = set-up: method as in Allen et al., 2016; details: weekly oral dose of 625 mg; patients; ref Allen et al., 2016; cited from earlier work
[5] = biological target: hNav1.5 N406C mutant (Homo sapiens, UniProt Q14524, N406C); details: inactivated channels
Description: as §1
(§3) Concentration-inhibition curves for estimating Kr (IC 50 at −140 mV; Figure 3), Ki (Figures 8, 13, 14), Ko (Figures 12, 17) or K app (Figure 9) were fitted to the Hill-equation.

[6] = biological target: hNav1.5 F1760K mutant (Homo sapiens, UniProt Q14524, F1760K, form not given); details: inactivated channels
Description: as §1, §3

[7] = biological target: T1, hNav1.5; details: 10 µM
Description: as §1, §2
Recovery time constants were estimated from double or triple exponential fits according to: I/Imax=1−a1∗e^(−t/τ1)−a2∗e^(−t/τ2)−a3∗e^(−t/τ3) (11)
Variable identifiers have the same meaning as before, with a 1 + a 2 + a 3 = 1.
If a drug interacts with the inactivated state (fast or slow), it is expected that also recovery from inactivation is affected. We analyzed this aspect by the use of a tri-pulse experiment (Figure 10B). After an initial control pulse, sufficient time was provided for full recovery. Next channels were inactivated for 500 ms at −20 mV. The test-pulse was initiated after channels had been allowed to recover at a potential of −140 mV for a variable time (range: 0.2 ms to 2.7 s). For evaluation, the current amplitudes of the test-pulses were related to their controls and plotted versus the recovery time (Figure 10A). To describe the time course of recovery, data points were fitted with double exponential functions (Eq. 11). […] In order to estimate recovery from slow inactivation, the experimental scheme was modified to a prolonged inactivation time (10 s) and an expansion of the recovery time up to 32.8 s (Figure 10D).
FIGURE 10 Recovery from inactivation. (A) Recovery from fast inactivation. The relative amount of available channels versus the recovery time at −140 mV is illustrated. Solid lines represent fits with two exponential functions according to Eq. 11. (B) Experimental scheme. After an initial control pulse, inactivation was performed at −20 mV for 500 ms. The test-pulse was applied after a varying time of recovery. For evaluation, current amplitudes of the test-pulses were related to their controls.

[8] = biological target: T1, hNav1.5; details: 40 µM (highest concentration tested); holding potential −140 mV; 30 s preincubation
Description: as §1
Unless otherwise stated, the membrane potential was held at −140 mV from which channel activations were elicited by brief depolarizing pulses to −20 mV of 5 ms duration. In order to minimize voltage errors, the series resistance was compensated up to 80%. […]

[9] = biological target: T1, hNav1.5; test: Interaction with the inactivated state: steady-state parameters (20 s inactivation at −20 mV); assay type: cell-based; set-up: expressed in transfected cells; host or cells: tsA201 (HEK293 derivative); details: for Hill-coefficient n: concentration-inhibition curve after 20 s inactivation at −20 mV
Description: as §1, §2, §3
I D and I C are the current amplitudes in the presence and absence of the drug, where [D] is the concentration of the drug.
To this end, a double pulse protocol was used as outlined by Figure 8B. […] To minimize drift effects during these long-lasting experiments, each run included its own control. Thus, drug effects as measured by the test-pulse were related to the timely executed control activation. […]

[10] = biological target: T1, hNav1.5; test: Time-dependent development of block (inactivating pre-pulse to −20 mV of variable duration); assay type: cell-based; set-up: expressed in transfected cells; host or cells: tsA201 (HEK293 derivative); details: for remaining current at the longest inactivation time: inactivation up to 30 s at −20 mV; for time constant of reduction of availability: single exponential, inactivation at −20 mV; for Amount of τ1 component / Amount of τ2 component / τ1 of block development / τ2 of block development: double exponential fit
Description: as §1, §2
Association (k on in µM^−1s^−1) and dissociation rates (k off in s^−1) were estimated from the slope and the y-intercept of a linear regression where the inverse of the fast time constants (1/τ) was plotted against the drug concentration [D] (Kuo et al., 1997). 1/τ=koff+kon∗[D] (9)
The corresponding dissociation constants were calculated according to: Kd=koff/kon (10)
Next, a set of experiments was performed to describe the time course of block development. The protocol is illustrated in Figure 7D. Briefly, after channel activation from a holding potential of −140 mV for control, ample time for full recovery at the holding potential was provided. Thereafter, the channels were inactivated for a variable duration (range: 25 ms–30 s) at a potential of −20 mV. Immediately before the test-pulse, channels were allowed to recover once more at the holding potential to eliminate or minimize the impact from fast inactivation. For evaluation, the current amplitudes obtained for test-pulses were related to their controls. […] For further evaluation, data were normalized with respect to control values (Figure 7B). […] The on-rate (k on ) was directly taken from the slope of the linear regression and the off-rate (k off ) was given by the y-intercept (Eq. 9, 10). For estimating the affinity for the inactivated state, the K i values were separately calculated for each cell according to the relation K i = k off /k on .
FIGURE 7 Time-dependent interaction. […] (B) Data from A, normalized with respect to control. […] Kon and koff values were taken from the slope and the y-intercept of the linear regression, respectively. […] (D) Experimental scheme. Starting from a holding potential of −140 mV, first a control pulse to […] was executed. Thereafter, ample time (2 s) was given to allow for full recovery before channels were inactivated for a variable duration at −20 mV. The test-pulse was carried out after a short recovery at −140 mV. For evaluation, test-pulse amplitudes were related to their controls.
FIGURE 15 Time-dependent interaction of imipridone derivatives.

[11] = biological target: T2, hNav1.5_I408W_L409C_A410W (WCW mutant) (Homo sapiens, UniProt Q14524, A410W/I408W/L409C); test: Open channel block, persistent current of inactivation-deficient WCW mutant; assay type: cell-based; details: for Hill-coefficient: persistent current
T2 construct: expressed in transfected cells; host or cells: tsA201 (HEK293 derivative)
Description: as §1, §2, §3

Cc1ccccc1CN1C(=O)C2=C(CCN(Cc3ccccc3)C2)N2CCN=C12 [TIC10]
current amplitude in the presence of TIC10 compared to control ([1]; 10 µM, holding potential −90 mV, depolarization to −20 mV): about half of its size
slope (k) of activation curve ([1]; in the presence of 10 µM, control 7.2 ± 0.6 mV): 7.9 ± 0.8 mV
potential of half-maximal activation (midpoint of activation curve) ([1]; in the presence of 10 µM, control −43.1 ± 2.9 mV): −44.8 ± 2.8 mV
slope of fast inactivation curve ([2]; in the presence of 10 µM, 5.3 ± 0.9 mV in the absence): 5.4 ± 0.9 mV
potential of half-maximal slow inactivation ([3]; 10 µM, 10 s pre-pulses, control −42.9 ± 5.0 mV): −92.7 ± 7.0 mV
slope of slow inactivation curve ([3]; 10 µM, control 21.5 ± 2.7 mV): 12.8 ± 0.9 mV
availability (remaining current amplitude) at pre-pulse potential 0 mV ([3]; 10 µM, control 45.6 ± 10.9%): 4.7 ± 2.8%
inhibition at 10 µM ([3]; read-out: inhibition normalized to control at 0 mV): 89.7 ± 6.5%
inhibition at 10 µM ([3]; read-out: inhibition normalized to control at −40 mV): 88.3 ± 5%
maximal plasma concentration [4]: 4.3 µM
Hill-coefficient [5]: 1.2 ± 0.1
Hill-coefficient ([6]; F1760K mutant): 1.5 ± 0.1
reduction of affinity of F1760K mutant compared to wild type [6]: more than 20 fold
Amount of τ1 component ([7]; 10 s inactivation): 36.3 ± 16.0%
Amount of τ2 component ([7]; 10 s inactivation): 62.2 ± 15.7%
τ1 for recovery from slow-inactivation ([7]; 10 s inactivation): 128.1 ± 80.3 ms
τ2 for recovery from slow-inactivation ([7]; 10 s inactivation): 548.4 ± 287.4 ms
proportion of fast recovering channels ([7]; 500 ms inactivation at −20 mV, recovery at −140 mV, control 92.6 ± 4.0%): 75.6 ± 7.0%
recovery time constant τ1 ([7]; control 1.4 ± 0.6 ms): 2.3 ± 1.2 ms
recovery time constant τ2 ([7]; control 23.6 ± 12.0 ms): 267.6 ± 73.1 ms
remaining current (of control) [8]: 93.2 ± 4.3%
Hill-coefficient n [9]: 1.2 ± 0.1
remaining current at the longest inactivation time ([10]; 2.5 µM, control 59.2 ± 7.7%): 46.0 ± 4.8%
time constant of reduction of availability ([10]; 2.5 µM, control 10.1 ± 2.0 s): 5.3 ± 1.9 s
remaining current at the longest inactivation time ([10]; 10 µM): 16.9 ± 6.4%
time constant of reduction of availability ([10]; 10 µM): 2.0 ± 0.8 s
Hill-coefficient [11]: 0.9 ± 0.1
effect on transient current (resting state) ([11]; up to 40 µM): hardly affected

O=C1C2=C(CCN(Cc3ccccc3)C2)N2CCN=C2N1Cc1ccc(C(F)(F)F)cc1 [ONC212]
shift of midpoints of fast inactivation ([2]; 10 µM, 500 ms pre-pulses, corrected for drug independent shift): −4.7 ± 0.4 mV and −4.7 ± 0.42 mV
IC50 ([9]; after 20 s inactivation at −20 mV, short recovery at −140 mV, wild type, read-out: half-maximal inhibition (IC50), representing the affinity for the inactivated state (Ki)): 2.5 ± 0.7 µM
Hill-coefficient n [9]: 1.5 ± 0.1
Amount of τ1 component ([10]; 2.5 µM): 8.8 ± 4.5%
Amount of τ2 component ([10]; 2.5 µM): 57.4± 6.6%
τ1 of block development ([10]; 2.5 µM): 0.2 ± 0.06 s
τ2 of block development ([10]; 2.5 µM): 4.6 ± 0.95 s
Amount of τ1 component ([10]; 10 µM): 45.2 ± 6.5%
Amount of τ2 component ([10]; 10 µM): 46.9 ± 7.2%
τ1 of block development ([10]; 10 µM): 0.1 ± 0.03 s
τ2 of block development ([10]; 10 µM): 2.2 ± 0.27 s
Hill-coefficient [11]: 1.4 ± 0.2
